# Measured values published in patent US4056625A, “Pesticidal compositions containing benzodioxole derivatives and methods of combating pests” (priority 1972, dated 1977).
# Columns and labels:
# Type in all cases: in vivo
# [1] = system: adult female houseflies (Musca domestica); experiment: Housefly mortality on treated filter papers (Examples 32-40); details: 100 milligrams per square foot, after 24 hours
# From the text: 9 centimeter diameter filter papers treated with aqueous acetone solutions of each of the compounds
# at rates equivalent to 100 milligrams per square foot (100 mgm./0.09 m^2.) of active ingredient were placed in 9 centimeter diameter Petri dishes. Batches of adult female houseflies (Musca domestica) lightly anaesthetised with carbon dioxide were then introduced into the dishes and a glass lid placed over each.
# [2] = system: first instar larvae of the sheep blowfly (Lucilia sericata); experiment: Sheep blowfly larvae on treated cotton wool pads (Examples 53-60); details: 1/2 ml. of acetone solution on cotton wool pads, after 24 hours
# Method: Cylindrical pads of cotton wool, approximate diameter 1 cm., length 2 cms. were treated with 1/2 ml. of acetone solutions of the following carbamates:
# After leaving for 12 hours to dry, the pads were treated with 1 ml. of sheep blood serum and infested with 20 first instar larvae of the sheep blowfly (Lucilia sericata). After 24 hours, the blowflies were examined and found to be all dead; insects similarly infested on untreated pads were unaffected.
# [3] = system: second instar larvae of the cabbage white butterfly (Pieris brassicae); experiment: Cabbage white butterfly larvae on treated cabbage leaf discs (Examples 41-48); details: 10, 5, 1, 0.5 and 0.25 pounds per acre, three replications, after 48 hours
# From the text: 7 centimeter diameter circular discs of cabbage leaves were painted with 1 milliliter aqueous acetone solutions of each of the following compounds:
# in each case at concentrations equivalent to leaf applications of 10, 5, 1, 0.5 and 0.25 pounds per acre (11.2, 5.6, 1.12, 0.56 and 0.28 kg./hectare) of active ingredient. When the deposit on the leaf discs had dried, each leaf disc was placed in a 9 centimeter diameter Petri dish, infested with ten second instar larvae of the cabbage white butterfly (Pieris brassicae) and covered with a glass lid. Three replications were made with each compound at each concentration level.
# [4] = system: adult female yellow fever mosquitos (Aedes aegypti); experiment: Yellow fever mosquitos in coated glass tubes (Examples 61-64); details: 3 mg of active ingredient per square foot, after 24 hours
# Method: Acetone solutions of the compounds
# were applied to the inside walls of glass tubes 9 cm high by 4.5 cm diameter so that after the acetone had evaporated a coating equivalent to 3 mg of active ingredient per square foot remained. Batches of adult female yellow fever mosquitos (Aedes aegypti) were then caged in the tubes.
# [5] = system: first stage larvae of the cattle tick, Boophilus microplus; experiment: Cattle tick larvae in treated filter paper packets (Example 65); details: 30 parts per million, 25° C, 24 hours
# Method: Filter papers, diameter 9 cm., were treated with 1 ml. of acetone solutions containing 30 parts per million of 2,2-dimethyl-1,3-benzodioxol-4-yl N-methylcarbamate or 7-chloro-2,2-dimethyl-1,3-benzodioxol-4-yl N-methylcarbamate. When they had dried, they were folded into quadrant shaped packets, infested with 20 first stage larvae of the cattle tick, Boophilus microplus, closed with a metal clip and kept at 25° C for 24 hours.
# [6] = system: adult female houseflies (Musca domestica); experiment: LC50 against adult female houseflies on filter papers (Example 70)
# Method: (§1) If complete kill was obtained at the highest dosage rate, the test was repeated using a logarithmically reducing dose regime until less than 50% mortality was recorded. The LC50 was then calculated from the line of best fit from the data plotted on log/provit analysis paper.
# (§2) Similarly LC50 values were obtained against various pests as described in Examples 70-73 where, however, the LC50 values are abbreviated on a 0-6 scale where
# LC50 values were obtained for each of Compounds 1, 2, 3, 4, 5 and 6 against adult female houseflies (Musca domestica), of the order Diptera. The tests were carried out by adding acetone solutions of the compounds to 9 cm diameter filter papers in the base of 9 cm diameter crystallising dishes, placing the houseflies in the dishes after the acetone had evaporated, closing the dishes with Petri dish lids and counting the mortality after 24 hours. The highest dosage rate employed was 1000 mg/ft^2 (10.65 g/m^2).
# [7] = system: yellow fever mosquito (Aedes aegypti); experiment: Persistency against yellow fever mosquito on treated glass plates (Example 75); details: 100 mg/ft^2 (1.065 g/m^2), adult female mosquitos, 7 day intervals until less than 50% mortality
# Method: Persistency was measured against yellow fever mosquito (Aedes aegypti), of the order Diptera, by treating glass plates with acetone solutions of the compounds listed below to produce a deposit equivalent to 100 mg/ft^2 (1.065 g/m^2), and caging adult female mosquitos on these surfaces for 24 hours at 7 day intervals until less than 50% mortality was recorded.
# [8] = system: adult red spider mites (Tetranychus telarius); experiment: LC50 against adult red spider mites on sprayed French beans (Example 73); details: 48 h, read-out: LC50 value
# Method: as §1, §2
# Similarly, LC50 values were obtained for each of Compounds 1, 2, 4, 5 and 6 against adult red spider mites (Tetranychus telarius), of the order Acarina. The tests were carried out by spraying infected French beans with a 50% acetone water solution of the compound, containing 500 ppm of Lissapol NX as a wetting agent, and recording the mortality after 48 hours. The highest dosage rate employed was 1000 ppm which is equivalent to 10 lb/acre (11.20 kg/ha).
# [9] = system: German cockroaches (Blattella germanica); experiment: Persistency against German cockroaches on treated glass plates (Example 74); details: 100 mg/ft^2 (1.065 g/m^2), 2nd stage nymphs, 7 day intervals until less than 50% mortality
# Method: Persistency was measured against German cockroaches (Blattella germanica), or the order Orthoptera, by treating glass plates with acetone solutions of the compunds listed below to produce a deposit equivalent to 100 mg/ft^2 (1.065 g/m^2), and caging 2nd stage nymph cockroaches on these surfaces for 48 hours at 7 day intervals until less than 50% mortality was recorded.
# [10] = system: 2nd stage nymph of the German cockroach (Blattella germanica); experiment: LC50 against German cockroach nymphs in treated glass tubes (Example 69)
# Method: Compounds 2 and 4 and also 2,2-dimethyl-1,3- benzodioxol-4-yl N-methylcarbamate(compound 5) and 2,2-dimethyl-1,3-benzodioxol-4-yl N-acetyl-N-methylcarbamate (compound 6) were tested for activity against the 2nd stage nymph of the German cockroach (Blattella germanica), of the order Orthoptera, by treating the walls of glass tubes (9.0 cm high × 4.5 cm diameter) with acetone solutions of the compounds and after the acetone had evaporated caging the insects in the tubes for 48 hours. The highest dosage rate employed was 50 mg/ft^2 (532 mg/m^2).
# as §1
# The LC50 values are abbreviated on a 0-6 scale where
# [11] = system: larvae of the sheep maggot fly (Lucilia sericata); experiment: LC50 against sheep maggot fly larvae on dental rolls (Example 71)
# Method: as §1, §2
# Similarly, LC50 values were obtained for each of Compounds 1, 2, 3, 4, 5 and 6 against larvae of the sheep maggot fly (Lucilia sericata), of the order Diptera. The tests were carried out by placing newly hatched larvae on dental rolls contained in glass vials and soaked with 1 ml of blood serum containing the compound. The mortality was assessed after 24 hours. The highest dosage rate employed was 1000 ppm.
# [12] = system: adult apterous vetch aphids (Megoura viciae); experiment: Vetch aphids on sprayed field beans (Examples 49 and 50); details: 100 parts per million, 50 gallons per acre, 24 hours
# From the text: Aqueous suspensions containing 100 parts per million of 2,2-dimethyl-1,3-benzodioxol-4-yl N-methylcarbamate and 2,2-dimethyl-1,3-benzodioxol-4-yl N-acetyl-N-methylcarbamate were sprayed at a rate equivalent to 50 gallons per acre (585 liters per hectare) on young field beans (Vicia faba) infested with adult apterous vetch aphids (Megoura viciae). After treatment the plants were enclosed in glass cages with gauze tops for ventilation.
smiles,measurement,setting,value
"CCCC(=O)N(C)C(=O)Oc1cccc2c1OCO2 [1,3-benzodioxol-4-yl N-butyryl-N-methylcarbamate]",mortality of houseflies,[1],all found to be dead
"CNC(=O)Oc1cccc2c1OCO2 [1,3-benzodioxol-4-yl N-methylcarbamate]",mortality of houseflies,[1],all found to be dead
"CC(=O)N(C)C(=O)Oc1cc(C)cc2c1OC(C)(C)O2 [2,2,6-trimethyl-1,3-benzodioxol-4-yl N-acetyl-N-methylcarbamate]",mortality of houseflies,[1],all found to be dead
"CNC(=O)Oc1cc(C)cc2c1OC(C)(C)O2 [2,2,6-trimethyl-1,3-benzodioxol-4-yl N-methylcarbamate]",mortality of sheep blowfly larvae,[2],all dead
"CNC(=O)Oc1ccc(C)c2c1OC(C)(C)O2 [2,2,7-trimethyl-1,3-benzodioxol-4-yl N-methylcarbamate]",mortality of cabbage white butterfly larvae,[3],all found to be dead
same,mortality of sheep blowfly larvae,[2],all dead
"CCC1(CC)Oc2cccc(OC(=O)N(C)C(C)=O)c2O1 [2,2-diethyl-1,3-benzodioxol-4-yl N-acetyl-N-methylcarbamate]",mortality of yellow fever mosquitos,[4],all found to be dead
"CCC1(CC)Oc2cccc(OC(=O)NC)c2O1 [2,2-diethyl-1,3-benzodioxol-4-yl N-methylcarbamate]",mortality of sheep blowfly larvae,[2],all dead
"C=CCN(C(C)=O)C(=O)Oc1cccc2c1OC(C)(C)O2 [2,2-dimethyl-1,3-benzodioxol-4-yl N-acetyl-N-allylcarbamate]",mortality of houseflies,[1],all found to be dead
"C#CCN(C(C)=O)C(=O)Oc1cccc2c1OC(C)(C)O2 [2,2-dimethyl-1,3-benzodioxol-4-yl N-acetyl-N-propargylcarbamate]",mortality of cabbage white butterfly larvae,[3],all found to be dead
"C=CCNC(=O)Oc1cccc2c1OC(C)(C)O2 [2,2-dimethyl-1,3-benzodioxol-4-yl N-allylcarbamate]",mortality of cabbage white butterfly larvae,[3],all found to be dead
"C#CCNC(=O)Oc1cccc2c1OC(C)(C)O2 [2,2-dimethyl-1,3-benzodioxol-4-yl N-propargylcarbamate]",mortality of cabbage white butterfly larvae,[3],all found to be dead
"CC(=O)N(C)C(=O)Oc1cccc2c1OC1(CCCCC1)O2 [2,2-pentamethylene-1,3-benzodioxol-4-yl N-acetyl-N-methylcarbamate]",mortality of yellow fever mosquitos,[4],all found to be dead
"CC(=O)N(C)C(=O)Oc1cccc2c1OC1(CCCC1)O2 [2,2-tetramethylene-1,3-benzodioxol-4-yl N-acetyl-N-methylcarbamate]",mortality of yellow fever mosquitos,[4],all found to be dead
"CNC(=O)Oc1cccc2c1OC1(CCCC1)O2 [2,2-tetramethylene-1,3-benzodioxol-4-yl N-methylcarbamate]",mortality of cabbage white butterfly larvae,[3],all found to be dead
"CCC1(C)Oc2cccc(OC(=O)NC)c2O1 (centres unmarked) [2-ethyl-2-methyl-1,3-benzodioxol-4-yl N-methylcarbamate]",mortality of cabbage white butterfly larvae,[3],all found to be dead
same,mortality of sheep blowfly larvae,[2],all dead
"CC(=O)N(C)C(=O)Oc1cccc2c1OC(C)O2 (centres unmarked) [2-methyl-1,3-benzodioxol-4-yl N-acetyl-N-methylcarbamate]",mortality of houseflies,[1],all found to be dead
"CNC(=O)Oc1cccc2c1OC(C)O2 (centres unmarked) [2-methyl-1,3-benzodioxol-4-yl N-methylcarbamate]",mortality of sheep blowfly larvae,[2],all dead
"CC(=O)N(C)C(=O)Oc1cccc2c1OC(C)(C(C)(C)C)O2 (centres unmarked) [2-methyl-2-t-butyl-1,3-benzodioxol-4-yl N-acetyl-N-methylcarbamate]",mortality of yellow fever mosquitos,[4],all found to be dead
"CNC(=O)Oc1cccc2c1OC(C)(C(C)(C)C)O2 (centres unmarked) [2-tert-butyl-2-methyl-1,3-benzodioxol-4-yl N-methylcarbamate]",mortality of sheep blowfly larvae,[2],all dead
"CNC(=O)Oc1ccc(Cl)c2c1OC(C)(C)O2 [7-chloro-2,2-dimethyl-1,3-benzodioxol-4-yl N-methylcarbamate]",mortality of cattle tick larvae,[5],all the ticks in the treated filter papers were dead
"CCc1ccc(OC(=O)NC)c2c1OC(C)(C)O2 [7-ethyl-2,2-dimethyl-1,3-benzodioxol-4-yl N-methylcarbamate]",mortality of sheep blowfly larvae,[2],all dead
"CC(=O)N(C)C(=O)Oc1cccc2c1OC(C)(C)O2 [Compound 6, 2,2-dimethyl-1,3-benzodioxol-4-yl N-acetyl-N-methylcarbamate]",LC50 value,"[6]; adult female houseflies, 24 hours, 0-6 scale (mg/ft^2)",3 (30-99 mg/ft^2 (0.32 - 1.06 g/m^2))
same,activity against houseflies (in words),[6]; compared with compound 5,worse
same,Persistency,[7],15 to 21 days
same,LC50,[8],100 to 299 µg/mL
same,Persistency,[9],8 to 14 days
same,mortality of houseflies,[1],all found to be dead
same,mortality of cabbage white butterfly larvae,[3],all found to be dead
same,LC50 value,"[10]; 2nd stage nymph German cockroach, 48 hours, 0-6 scale",1 (15-50 mg/ft^2 (160-532 mg/m^2))
same,activity against cockroaches (in words),[10]; cockroaches,low activity against cockroaches
same,LC50,"[11]; Lucilia sericata, 24 h, read-out: LC50 value",30 to 99 µg/mL
same,activity against sheep maggot fly (in words),[11]; compared with compound 5,worse
same,kill of vetch aphids,[12],complete kill of the aphids in 24 hours
